Results reported in US20040116420A1 (priority 2001, published 2004).

Columns and labels:
HSV-1 = test: Antiviral activity, HSV-1 in Vero cells, plaque method; format: cell-based; conditions: Human alphaherpesvirus 1, 20 hours, 90% inhibition of plaque formation
Summary of the method: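 This is a virus-yield read-out. The culture medium was frozen at −80° C and thawed, and the plaques it formed were counted. It came from Vero monolayers infected with 50,000 pfu HSV-1 and then exposed to the compound for 20 h at 37° C. EC90 is the concentration inhibiting 90% of plaque formation relative to the untreated infected control.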

Vero cells = test: Cytotoxicity, Vero cells, Alamar Blue; format: cell-based; conditions: 25 μM, 20 hours
Summary of the method: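 Living-cell ratio versus untreated control was read by Alamar Blue absorbance after about 6 h of dye incubation. Before that, Vero cells had received 25 μM test compound in 2% FBS-DMEM for 20 hours at 37 °C under 5% CO2.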

HSV-1 protease = biological target: T1, HSV-1 protease (Human herpesvirus 1, UniProt P10210); test: Enzymatic assay for HSV-1 protease (assembly) inhibitor, fluorescence polarization; format: biochemical; conditions: read-out: HSV-1 Enzyme inhibition IC50
T1 construct: 6xHis (N); made in house; host or cells: baculovirus expression system
T1 sequence (P10210 1-247): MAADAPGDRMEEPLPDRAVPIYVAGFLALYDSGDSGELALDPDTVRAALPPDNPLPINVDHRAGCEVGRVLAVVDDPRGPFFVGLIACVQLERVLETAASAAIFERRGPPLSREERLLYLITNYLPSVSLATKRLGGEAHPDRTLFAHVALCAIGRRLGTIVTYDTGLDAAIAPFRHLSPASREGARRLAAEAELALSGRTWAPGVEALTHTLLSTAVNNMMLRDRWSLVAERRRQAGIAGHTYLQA
Summary of the method: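 Fluorescence polarization read-out: after avidin stop, cleavage of a biotinylated DTAF-labelled release-site peptide by recombinant N-His6 HSV-1 protease was compared with no-inhibitor wells. Enzyme and compound were preincubated 30 min, then substrate reacted 60 min, all at room temperature, pH 7.4 citrate buffer with TCEP.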

Human plasma stability = format: in vitro ADME
Protocol: An Assay Method for Human Plasma Stability Human plasma was thawed, 200 μl each thereof was placed in each cell of a 96-well plate immediately thereafter, and 4 μl of solution of each test compound in 1 mM DMF was added thereto. A microplate reader for fluorescence absorption was used to assay changes in fluorescence, and half life was determined based on the changes.

Structure (SMILES)	EC90 (HSV-1) [µM]	IC50 (HSV-1 protease) [µM]	half-life at 19.6 μM (Human plasma stability) [h]	Cell viability (% of control) (Vero cells) [%]
Cc1c(NC(=O)OC(C)(C)C)ccc2nc(N[C@@H](Cc3ccccc3)C(=O)NCc3ccccn3)oc(=O)c12 [Compound No.20, (5-Methyl-4-oxo-{2-2-phenyl-1S-[(pyridin-2-ylmethyl)-carbamoyl]-ethylamino}-4H-benzo[d][1,3]oxazin-6-yl)-carbamic Acid Tert-Butyl Ester]	5.9	0.5	1.47	101.0
Cc1c(NC(=O)OC(C)(C)C)ccc2nc(NC(C)(C)C(=O)N(C)CCc3cccnc3)oc(=O)c12 [Compound No.19, (5-Methyl-2-{1-methyl-1-[methyl-(2-pyridin-3-yl-ethyl)-carbamoyl]-ethylamino}-4-oxo-4H-benzo[d][1,3]oxazin-6-yl)-carbamic Acid Tert-Butyl Ester]	6.2	0.3	6.2	106.0
COc1ccc(CC(Nc2nc3ccc(NC(=O)OC(C)(C)C)c(C)c3c(=O)o2)C(=O)NCc2ccccn2)cc1 (stereo not drawn) [compound 230, (2-{2-(4-Methoxy-phenyl)-1-[(pyridin-2-ylmethyl)-carbamoyl]-ethylamino}-5-methyl-4-oxo-4H-benzo[d][1,3]oxazin-6-yl)-carbamic acid tert-butyl ester, reference compound]	6.1	0.4	0.45	
Cc1c(NC(=O)OC(C)(C)C)ccc2nc(N[C@@H](CC(C)C)C(=O)NCc3cccnc3)oc(=O)c12 [Compound No.37, (5-Methyl-2-{3-methyl-1S-[(pyridin-3-ylmethyl)-carbamoyl]-butylamino}-4-oxo-4H-benzo[d][1,3]oxazin-6-yl)-carbamic acid tert-butyl ester]	15	4.6		105.0
Cc1ccccc1C(=O)Nc1ccc2nc(NC(C)(C)C(=O)N(C)CCc3ccccn3)oc(=O)c2c1C [Compound No.156, 2-Methyl-N-(5-methyl-2-{1-methyl-1-[methyl-(2-pyridin-2-yl-ethyl)-carbamoyl]-ethylamino}-4-oxo-4H-benzo[d][1,3]oxazin-6-yl)-benzamide]	> 12.5	3.8		78.0
Cc1c(NC(=O)OC(C)(C)C)ccc2nc(N(C)[C@@H](C)C(=O)N(C)CCc3cccnc3)oc(=O)c12 [Compound No.77, [5-Methyl-2-(methyl-{1S-[methyl-(2-pyridin-3-yl-ethyl)-carbamoyl]-ethyl}-amino)-4-oxo-4H-benzo[d][1,3]oxazin-6-yl]-carbamic acid tert-butyl ester]	> 12.5	1.8		94.4
Cc1c(NC(=O)c2ccc(OC(F)(F)F)cc2)ccc2nc(NC(C)(C)C(=O)N(C)CCc3ccccn3)oc(=O)c12 [Compound No.173, N-(5-Methyl-2-{1-methyl-1-[methyl-(2-pyridin-2-yl-ethyl)-carbamoyl]-ethylamino}-4-oxo-4H-benzo[d][1,3]oxazin-6-yl)-4-trifluoromethoxy-benzamide]	7.1	1.4		26.1
Cc1c(NC(=O)c2ccccc2C(F)(F)F)ccc2nc(NC(C)(C)C(=O)N(C)CCc3ccccn3)oc(=O)c12 [Compound No.144, N-(5-Methyl-2-{1-methyl-1-[methyl-(2-pyridin-2-yl-ethyl)-carbamoyl]-ethylamino}-4-oxo-4H-benzo[d][1,3]oxazin-6-yl)-2-trifluoromethyl-benzamide]	> 12.5	2.3		76.1

More lines, main results first:

EC90 (HSV-1) [µM]	IC50 (HSV-1 protease) [µM]	half-life at 19.6 μM (Human plasma stability) [h]	Structure (SMILES)	Cell viability (% of control) (Vero cells) [%]
7.6	0.2	3.02	Cc1c(NC(=O)OC(C)(C)C)ccc2nc(N[C@@H](C)C(=O)N(C)CCc3cccnc3)oc(=O)c12 [Compound No.65, (5-Methyl-2-{1S-[methyl-(2-pyridin-3-yl-ethyl)-carbamoyl]-ethylamino}-4-oxo-4H-benzo[d][1,3]oxazin-6-yl)-carbamic acid tert-butyl ester]	104.0
10.8	1.7	8.85	Cc1c(NC(=O)OC(C)(C)C)ccc2nc(N[C@@H](C)C(=O)N(C)Cc3ccccn3)oc(=O)c12 [Compound No.58, {5-Methyl-2-[1S-(methyl-pyridin-2-ylmethyl-carbamoyl)-ethylamino]-4-oxo-4H-benzo[d][1,3]oxazin-6-yl}-carbamic acid tert-butyl ester]	105.0
10	1.2	14.9	Cc1c(NC(=O)OC(C)(C)C)ccc2nc(NC3(C(=O)N(C)Cc4cccnc4)CCCCC3)oc(=O)c12 [Compound No.120, {5-Methyl-2-[1-(methyl-pyridin-3-ylmethyl-carbamoyl)-cyclohexylamino]-4-oxo-4H-benzo[d][1,3]oxazin-6-yl}-carbamic acid tert-butyl ester]	
10.1	1.1	5.13	Cc1c(NC(=O)OC(C)(C)C)ccc2nc(NC(C)(C)C(=O)N(C)Cc3ccccn3)oc(=O)c12 [Compound No.59, {5-Methyl-2-[1-methyl-1-(methyl-pyridin-2-ylmethyl-carbamoyl)-ethylamino]-4-oxo-4H-benzo[d][1,3]oxazin-6-yl}-carbamic acid tert-butyl ester]	106.0
< 3.2	0.7	9.92	Cc1c(NC(=O)OC(C)(C)C)ccc2nc(N[C@@H](CCc3ccccc3)C(=O)N(C)Cc3ccccn3)oc(=O)c12 [Compound No.23, {5-Methyl-2-[1S-(methyl-pyridin-2-ylmethyl-carbamoyl)-3-phenyl-propylamino]-4-oxo-4H-benzo[d][1,3]oxazin-6-yl}-carbamic Acid Tert-Butyl Ester]	52.0
5.6	1.2		Cc1c(NC(=O)c2ccc(C(F)(F)F)cc2)ccc2nc(NC(C)(C)C(=O)N(C)CCc3ccccn3)oc(=O)c12 [Compound No.146, N-(5-Methyl-2-{1-methyl-1-[methyl-(2-pyridin-2-yl-ethyl)-carbamoyl]-ethylamino}-4-oxo-4H-benzo[d][1,3]oxazin-6-yl)-4-trifluoromethyl-benzamide]	18.0
> 12.5	4.3		Cc1c(NC(=O)OC(C)(C)C)ccc2nc(N3CCCC[C@H]3C(=O)NCc3ccncc3)oc(=O)c12 [Compound No.104, (5-Methyl-4-oxo-2-{2S-[(pyridin-4-ylmethyl)-carbamoyl]-piperidin-1-yl}-4H-benzo[d][1,3]oxazin-6-yl)-carbamic acid tert-butyl ester]	63.0
> 25	> 20		Cc1c(NC(=O)OC(C)(C)C)ccc2nc(N[C@H](C(=O)NCc3ccncc3)C(C)C)oc(=O)c12 [Compound No.25, (5-Methyl-2-{2-methyl-1S-[(pyridin-4-ylmethyl)-carbamoyl]-propylamino}-4-oxo-4H-benzo[d][1,3]oxazin-6-yl)-carbamic acid tert-butyl ester]	100.0
